Experimental data: article PMC4021201, “Repositioning: the fast track to new anti-malarial medicines?” (Malaria Journal, 2014)
Where “and” joins values, the source holds several entries; their conditions need not be identical. Equal values may be shown once. Read-outs that look alike come from different tables or passages of the source.

Tests used:
P. falciparum NF54 = assay: SYBR I EC50 determination assay (AstraZeneca); type: cell-based; details: Plasmodium falciparum; P. falciparum strain NF54; 72 h; read-out: Pf EC50
Text: (§1) AZ also used a SYBR® I EC50 determination assay, but with P. falciparum NF54 (MRA-1000, MR4, ATCC, Manassas, VA, USA). The per cent inhibition with respect to the control was plotted against the logarithm of the drug concentration. The curve was fitted by non-linear regression using the sigmoidal dose–response (variable slope) formula to yield the concentration–response curves. The concentration at which 50% inhibition was observed was taken as the EC50 value of the compound. A cytotoxicity assay was also performed by AZ, using the human hepatoma Hep G2 cell line and the per cent inhibition and EC50 values were calculated as described for P. falciparum.
AstraZeneca. This group also used a SYBR® I IC50 determination assay. Compounds were serially diluted in 384 well plates (C3570, Corning Life Sciences). 1 µL of compound was dispensed in a 10 point concentration response format using a Biomek Fx liquid dispenser. To this, 50 µL of P. falciparum NF54 (MRA-1000, MR4, ATCC, Manassas, Virginia) ring stage culture at 2% parasitemia and 0.3 % hematocrit was added using a multidrop dispenser. […] After incubation, the % parasitemia in one of the untreated culture control wells was determined by light microscopy. […] Green fluorescence (485 nm excitation/ 530 nm emission) was measured using the Safire 2 fluorimeter (Tecan Instruments). […]

[1] = tested on: human hepatoma Hep G2 cell line; assay: Hep G2 cytotoxicity assay (AstraZeneca); type: cell-based; details: HepG2, 72 h
Text: as §1
The human hepatoma Hep G2 cell line was used for the cytotoxicity assay. 1 µL of compound was dispensed in a 10 point concentration response format using a Biomek Fx liquid dispenser into white sterile 384-well opaque bottom plates (C3570, Corning Life Sciences). To this, 50 µL of Hep G2 cells at 3000 cells/well was added using a Multidrop dispenser. The plates were then incubated at 37 °C for 72 h in a 5% CO2 incubator. Resazurin at a final concentration of 10 µM was added to all wells and the plates were incubated at room temperature for 4 h. Fluorescence (excitation 535 nm; emission 590 nm) was measured in a Safire 2 fluorimeter. The % inhibition with respect to the control was plotted against the logarithm of the drug concentration. […]

P. berghei = assay: Plasmodium berghei four-day suppression test; type: in vivo; details: 100–200 mg/kg BID oral, four days, BALB/c mice, with oral aminobenzotriazole 100 mg/kg
Description: AZ compounds were tested by the company for in vivo efficacy in a standard four-day suppression test using the rodent malaria parasite P. berghei. All animal experimentation protocols were approved by the Institutional Animal Ethics Committee registered with the Government of India (Registration No: 5/1999/CPCSEA). Adult male BALB/c mice (purchased from RCC Laboratories, Hyderabad, India) were used for efficacy studies. Animals were randomly distributed to cages quarantined for one week with veterinary examination and then taken into experimentation. Feed and water were given ad libitum. Briefly, male BALB/c mice were infected intraperitoneally with 2×10^7 infected erythrocytes on day 0. […] On day 3, per cent parasitaemia was estimated microscopically from a Giemsa-stained blood smear. The effect of the test compound on parasite growth was calculated as the difference between the mean value of the control group (taken as 100%) and those of the experimental group and expressed as per cent reduction. Reference anti-malarial compounds (chloroquine and artemisinin) were used as positive controls and the results obtained matched those published in the literature. Pharmacokinetics were analysed in healthy as well as infected mice. Data from healthy mice were used for designing the dosing regimen for the efficacy studies. […]

hERG = hERG (Homo sapiens, UniProt Q12809); assay: Independently run hERG assay
[2] = parameters: method as in data provided by Pfizer; details: human, single doses from 10 mg to 480 mg; ref data provided by Pfizer; cited from earlier work
P. falciparum K1 = assay: SYBR I dye DNA staining assay (Pfizer), P. falciparum K1; details: Plasmodium falciparum, K1, read-out: EC50 K1
Description: (§2) Cultures of P. falciparum 3D7 and K1 (both from David Baker, LSHTM) were maintained in O+ human erythrocytes (Research Red Cells and Blood Transfusion Service). 384-well assay plates contained 250 nL of compound at a serial dilution of 1:3 in 100% DMSO, starting from 200 µM (in the plate i.e. 20 µM final) and minimum and maximum controls. After addition of 50 μL of infected erythrocytes per well, plates were incubated at 37°C for three days in 5% CO2, 5% O2 and 90% N2. […] Percent anti-malarial activity was calculated relative to the minimum and maximum controls for each of the 11 drug concentrations and EC50 values determined from the resulting data plot.

P. falciparum 3D7 = assay: SYBR I dye DNA staining assay (Pfizer), P. falciparum 3D7; details: Plasmodium falciparum, 3D7, read-out: EC50 3D7
Description: as §2

[3] = Pharmacokinetics in P. falciparum-infected humanized mice; details: for Cmax / Tmax: NOD-scid IL-2Rγ^null, mouse, po; for Cmax / Tmax / AUC (0–t): whole blood; for DNAUC(0–t): dose-normalized AUC(0–t); for DNAUC(0–t) / AUC (0–t): mean (SD)
Description: The pharmacokinetics of compounds after oral administration was determined concurrently in the same mice used for the therapeutic efficacy assay. Samples were taken at 0.25, 0.5, 1, 3, 6, 8, and 24 hours after the first dose. Compound levels were measured in 25 μL blood samples that were mixed with 25 μL of saponin (0.1% in water) and processed under standard liquid–liquid extraction conditions [39]. Pharmacokinetic parameters were calculated using WinNonlin 5.2 non-compartmental analysis.

[4] = tested on: P. falciparum Pf3D7^0087/N9; assay: Plasmodium falciparum huSCID humanized mouse model, four-day test
Description: In vivo testing using this model was performed by GSK at Tres Cantos, against P. falciparum 3D7 (in vivo strain Pf3D7^0087/N9generated by GSK using Pf3D7 obtained from Eduardo Dei-Cas, Institute Pasteur, Lille, France [36]) growing in peripheral blood of female NOD-scid IL-2Rγ^null mice engrafted with human erythrocytes, i e, a ‘humanized’ mouse model, following published protocols [36, 37]. Briefly, animals were infected intravenously with 20×10^6 infected erythrocytes on day 0. […] Dosing was initiated at the maximum tolerated dose in mice on day 3 after infection and continued once daily for four days. Each experimental group was n = 3 mice unless otherwise stated. Control animals received vehicle only and a quality control assay used chloroquine at target doses of 3 mg/kg and 7 mg/kg. Venous blood samples for parasitology (2 μL) were taken at days 3, 5, and 7 after infection. Anti-malarial efficacy was assessed using a standard four-day test (i e, at day 7) and blood parasitaemia was measured by fluorescence-activated cell sorting (FACS) analysis [38]. The limit of detection (per cent of P. falciparum) was 0.01%. The number of parasites ×10^6 cells was recorded and data were analysed by non-linear fitting to a logistic equation of log10 (per cent parasitaemia at day 7 after infection) versus the dose level administered.
Per cent parasitaemia at day 7 after infection in treated versus control animals was analysed using a one factor ANOVA with Tukey’s post-test analysis. […] ED90 was calculated similarly. Analysis was performed using WinNonlin 5.2 and GraphPad Prism 5.0.

hERG, sequence (Q12809 whole entry): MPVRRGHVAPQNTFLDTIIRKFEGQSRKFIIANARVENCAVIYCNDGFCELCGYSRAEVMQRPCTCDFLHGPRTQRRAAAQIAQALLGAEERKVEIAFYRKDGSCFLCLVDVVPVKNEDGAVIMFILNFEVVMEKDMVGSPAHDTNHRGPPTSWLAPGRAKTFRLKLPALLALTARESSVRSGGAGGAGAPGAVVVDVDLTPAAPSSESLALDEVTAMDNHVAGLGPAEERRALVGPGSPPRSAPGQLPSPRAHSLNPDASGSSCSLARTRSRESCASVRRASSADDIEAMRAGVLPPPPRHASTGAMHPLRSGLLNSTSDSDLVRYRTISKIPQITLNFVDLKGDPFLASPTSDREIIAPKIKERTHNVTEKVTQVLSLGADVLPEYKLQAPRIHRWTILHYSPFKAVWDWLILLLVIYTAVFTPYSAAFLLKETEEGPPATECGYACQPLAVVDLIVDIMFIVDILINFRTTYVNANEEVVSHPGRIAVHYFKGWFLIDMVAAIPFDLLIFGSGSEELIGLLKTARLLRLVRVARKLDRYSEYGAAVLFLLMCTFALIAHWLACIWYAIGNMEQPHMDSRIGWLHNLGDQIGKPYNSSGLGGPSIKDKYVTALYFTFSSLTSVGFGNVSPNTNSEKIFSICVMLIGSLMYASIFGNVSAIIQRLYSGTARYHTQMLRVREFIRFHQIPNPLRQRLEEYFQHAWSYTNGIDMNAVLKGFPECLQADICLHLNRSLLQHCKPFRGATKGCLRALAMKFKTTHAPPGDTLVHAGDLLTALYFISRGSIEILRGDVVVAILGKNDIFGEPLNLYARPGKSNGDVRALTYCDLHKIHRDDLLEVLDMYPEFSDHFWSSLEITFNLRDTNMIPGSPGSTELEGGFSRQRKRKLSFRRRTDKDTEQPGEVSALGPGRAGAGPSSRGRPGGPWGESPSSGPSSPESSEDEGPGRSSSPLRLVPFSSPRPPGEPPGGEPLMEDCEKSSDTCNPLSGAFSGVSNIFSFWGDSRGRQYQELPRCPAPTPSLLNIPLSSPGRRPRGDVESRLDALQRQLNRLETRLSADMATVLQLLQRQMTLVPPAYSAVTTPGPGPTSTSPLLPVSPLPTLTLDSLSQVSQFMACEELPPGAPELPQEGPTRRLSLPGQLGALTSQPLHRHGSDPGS

In the case of CC(C)Oc1cc(Nc2nc(N[C@@H](C)c3ccc(F)cn3)ncc2Cl)n[nH]1 [AZ-1], the EC50 (P. falciparum NF54) is reported as 600 nM, the EC50 [1] is reported as 10400 nM and the “growth inhibition in P. berghei-infected mice” value (P. berghei) is reported as 50–60%.
In the case of Cc1nc2cnccc2n1-c1ccc(C(=O)N2CCC(=C3c4ccc(Cl)cc4CCc4cccnc43)CC2)cc1 [UK-112,214], the hERG (hERG) is given as 2.8 µM, the Cmax [2] is given as 14 to 4145 ng/mL and the EC50 (P. falciparum K1) is given as 600 nM. It also gave an EC50 (P. falciparum 3D7) of 550 nM, a Cmax ([3]; 100 mg/kg) of 8610 ng/mL and a Tmax ([3]; 100 mg/kg) of 4 h. The Cmax ([3]; 300 mg/kg) was 17600 ng/mL, the Tmax ([3]; 300 mg/kg) was 3.3 h and the “DNAUC(0–t)” value ([3]; target dose 100 mg/kg oral) was 0.859 (0.32) μg · h · mL^−1 · day^−1. The “DNAUC(0–t)” value ([3]; target dose 300 mg/kg oral) was 1.03 (0.45) μg · h · mL^−1 · day^−1, the “AUC (0–t)” value ([3]; target dose 100 mg/kg oral) was 72.1 (2.7) μg · h · mL and the “AUC (0–t)” value ([3]; target dose 300 mg/kg oral) was 231 (101) μg · h · mL. The ED50 ([4]; Plasmodium falciparum, in Mus musculus, parasitaemia at day 7 after infection, once daily for four days, mean (95% CI)) was 80.6 mg/kg, the AUCED90 ([4]; blood exposure needed to inhibit parasitaemia at day 7 by 90% vs vehicle) was 111.5 μg · h · mL^−1 · day^−1 and 111.5 (106.6, 121.1) μg · h · mL^−1 · day^−1 and the ED90 ([4]; parasitaemia at day 7 after infection, once daily for four days, mean (95% CI)) was 131.3 mg/kg and 131.3 (112.3, 156.7) mg/kg.
